From patent US7816134B2, “Method of extensive culture of antigen-specific cytotoxic T cells” (Takara Bio Inc., priority 2000, dated 2010)
Like-named read-outs stand apart in the source and are kept apart here.

Assays:
[1] = system: anti-influenza virus memory CTLs (FluMPA2.1); assay type: cell-based, human
[2] = system: HLA-A2.1-having EBV transformed B-cells (221A2.1); settings: for Cytotoxic Activity (%) E/T Ratio 2.5 / Cytotoxic Activity (%) E/T Ratio 5 / Cytotoxic Activity (%) E/T Ratio 10 / Cytotoxic Activity (%) E/T Ratio 1 / Cytotoxic Activity (%) E/T Ratio 3: FluMPA2.1
[3] = system: HLA-A2.1-having EBV transformed B-cells (221A2.1); settings: for Cytotoxic Activity (%) E/T Ratio 3 / Cytotoxic Activity (%) E/T Ratio 10 / Cytotoxic Activity (%) E/T Ratio 1 / Cytotoxic Activity (%) E/T Ratio 30: FluMPA2.1
[4] = Example 2-4, sample 10 μg/ml during CTL induction +, during expansion +
[5] = Example 2-6, sample during CTL induction −, during expansion + (10 μg/ml)
[6] = Example 1-4, sample 10 μg/ml during CTL induction +, during culture with IL-2 +, peptide addition +
[7] = Example 1-4, sample 10 μg/ml during CTL induction +, during culture with IL-2 +, peptide addition −
[8] = Example 1-5, sample during CTL induction −, during culture with IL-2 + (10 μg/ml), peptide addition +
[9] = Example 1-5, sample during CTL induction −, during culture with IL-2 + (10 μg/ml), peptide addition −
[10] = sample 10 μg/ml during CTL induction and during continuous culture, 10 to 14 days
[11] = sample 10 μg/ml only during continuous culture
[12] = Example 2-4, sample 10 μg/ml during CTL induction +, during expansion +, peptide addition +
[13] = Example 2-4, sample 10 μg/ml during CTL induction +, during expansion +, peptide addition −
[14] = Example 2-6, sample during CTL induction −, during expansion + (10 μg/ml), peptide addition +
[15] = Example 2-6, sample during CTL induction −, during expansion + (10 μg/ml), peptide addition −
[16] = Example 1-2, sample 10 μg/ml during CTL induction +, during culture with IL-2 +, peptide addition +
[17] = Example 1-2, sample 10 μg/ml during CTL induction +, during culture with IL-2 +, peptide addition −
[18] = Example 2-3, sample 10 μg/ml during CTL induction +, during expansion +, peptide addition +
[19] = Example 2-3, sample 10 μg/ml during CTL induction +, during expansion +, peptide addition −
[20] = Example 2-7, sample 10 μg/ml during CTL induction +, during expansion +, peptide addition +
[21] = Example 2-7, sample 10 μg/ml during CTL induction +, during expansion +, peptide addition −
[22] = Example 2-7, sample 10 μg/ml during CTL induction +, during expansion −, peptide addition +
[23] = Example 2-7, sample 10 μg/ml during CTL induction +, during expansion −, peptide addition −
[24] = Example 1-3, sample 10 μg/ml during CTL induction +, during culture with IL-2 +, peptide addition +
[25] = Example 1-3, sample 10 μg/ml during CTL induction +, during culture with IL-2 +, peptide addition −

## pectic acid
[1]; [4]
  Expansion Ratio: × 160
[1]; [5]
  Expansion Ratio: × 350
[2]; [6]
  Cytotoxic Activity (%) E/T Ratio 2.5: 32.0%
  Cytotoxic Activity (%) E/T Ratio 5: 49.4%
[2]; [7]
  Cytotoxic Activity (%) E/T Ratio 2.5: 3.4%
  Cytotoxic Activity (%) E/T Ratio 5: 5.5%
[2]; [8]
  Cytotoxic Activity (%) E/T Ratio 10: 16.5%
[2]; [9]
  Cytotoxic Activity (%) E/T Ratio 10: 0%
[2]; [10]
  cytotoxic activity after continuous culture (in words): effects for maintaining cytotoxic activity
[2]; [11]
  cytotoxic activity after continuous culture (in words): maintaining an antigen-specific cytotoxic activity
[3]; [12]
  Cytotoxic Activity (%) E/T Ratio 3: 47.0%
  Cytotoxic Activity (%) E/T Ratio 10: 69.8%
[3]; [13]
  Cytotoxic Activity (%) E/T Ratio 3: 11.6%
  Cytotoxic Activity (%) E/T Ratio 10: 7.3%
[3]; [14]
  Cytotoxic Activity (%) E/T Ratio 1: 18.2%
  Cytotoxic Activity (%) E/T Ratio 3: 33.3%
  Cytotoxic Activity (%) E/T Ratio 10: 64.2%
  Cytotoxic Activity (%) E/T Ratio 30: 87.8%
[3]; [15]
  Cytotoxic Activity (%) E/T Ratio 1: 2.3%
  Cytotoxic Activity (%) E/T Ratio 3: 4.1%
  Cytotoxic Activity (%) E/T Ratio 10: 8.2%
  Cytotoxic Activity (%) E/T Ratio 30: 15.9%

## CC1OC(OC2C(OC3C(OC4C(OS(=O)(=O)O)C(C)OC(O)C4OS(=O)(=O)O)OC(C)C(OS(=O)(=O)O)C3OC3OC(C)C(OS(=O)(=O)O)C(OS(=O)(=O)O)C3OS(=O)(=O)O)OC(C)C(OS(=O)(=O)O)C2OC2OC(C)C(OS(=O)(=O)O)C(OC3OC(C)C(OS(=O)(=O)O)C(O)C3OS(=O)(=O)O)C2OS(=O)(=O)O)C(O)C(OS(=O)(=O)O)C1O (centres unmarked) [7-12SFd-F]
[1]; Example 2-3, sample 10 μg/ml during CTL induction +, during expansion +, 14 days
  Expansion Ratio: × 178
[1]; [5]
  Expansion Ratio: × 310
[1]; Example 2-7, sample 10 μg/ml during CTL induction +, during expansion +
  Expansion Ratio: × 258
[1]; Example 2-7, sample 10 μg/ml during CTL induction +, during expansion −
  Expansion Ratio: × 283
[2]; [16]
  Cytotoxic Activity (%) E/T Ratio 1: 12.0%
  Cytotoxic Activity (%) E/T Ratio 3: 37.9%
  Cytotoxic Activity (%) E/T Ratio 10: 60.7%
[2]; [17]
  Cytotoxic Activity (%) E/T Ratio 1: 0.3%
  Cytotoxic Activity (%) E/T Ratio 3: 2.2%
  Cytotoxic Activity (%) E/T Ratio 10: 11.7%
[2]; [10]
  cytotoxic activity after continuous culture (in words): maintaining an antigen-specific cytotoxic activity
[3]; [18]
  Cytotoxic Activity (%) E/T Ratio 3: 67.0%
  Cytotoxic Activity (%) E/T Ratio 10: 93.7%
[3]; [19]
  Cytotoxic Activity (%) E/T Ratio 3: 2.8%
  Cytotoxic Activity (%) E/T Ratio 10: 0%
[3]; [14]
  Cytotoxic Activity (%) E/T Ratio 1: 14.1%
  Cytotoxic Activity (%) E/T Ratio 3: 20.1%
  Cytotoxic Activity (%) E/T Ratio 10: 41.7%
  Cytotoxic Activity (%) E/T Ratio 30: 64.6%
[3]; [15]
  Cytotoxic Activity (%) E/T Ratio 1: 2.7%
  Cytotoxic Activity (%) E/T Ratio 3: 0%
  Cytotoxic Activity (%) E/T Ratio 10: 1.0%
  Cytotoxic Activity (%) E/T Ratio 30: 3.5%
[3]; [20]
  Cytotoxic Activity (%) E/T Ratio 1: 9.4%
  Cytotoxic Activity (%) E/T Ratio 3: 23.4%
  Cytotoxic Activity (%) E/T Ratio 10: 44.2%
  Cytotoxic Activity (%) E/T Ratio 30: 82.1%
[3]; [21]
  Cytotoxic Activity (%) E/T Ratio 1: 0%
  Cytotoxic Activity (%) E/T Ratio 3: 0%
  Cytotoxic Activity (%) E/T Ratio 10: 0%
  Cytotoxic Activity (%) E/T Ratio 30: 1.6%
[3]; [22]
  Cytotoxic Activity (%) E/T Ratio 1: 14.0%
  Cytotoxic Activity (%) E/T Ratio 3: 34.6%
  Cytotoxic Activity (%) E/T Ratio 10: 50.4%
  Cytotoxic Activity (%) E/T Ratio 30: 83.5%
[3]; [23]
  Cytotoxic Activity (%) E/T Ratio 1: 6.7%
  Cytotoxic Activity (%) E/T Ratio 3: 6.5%
  Cytotoxic Activity (%) E/T Ratio 10: 9.3%
  Cytotoxic Activity (%) E/T Ratio 30: 9.8%
[3]; sample 10 μg/ml during CTL induction and during expansion, no EBV-B cells
  cytotoxic activity after expansion for 14 days (in words): maintained specific, high cytotoxic activity

## non-swellable alginic acid
[1]; [4]
  Expansion Ratio: × 220
[1]; [5]
  Expansion Ratio: × 335
[2]; [24]
  Cytotoxic Activity (%) E/T Ratio 1: 28.1%
  Cytotoxic Activity (%) E/T Ratio 3: 52.7%
  Cytotoxic Activity (%) E/T Ratio 10: 77.1%
[2]; [25]
  Cytotoxic Activity (%) E/T Ratio 1: 12.9%
  Cytotoxic Activity (%) E/T Ratio 3: 24.8%
  Cytotoxic Activity (%) E/T Ratio 10: 14.0%
[2]; [8]
  Cytotoxic Activity (%) E/T Ratio 1: 9.5%
  Cytotoxic Activity (%) E/T Ratio 3: 13.8%
  Cytotoxic Activity (%) E/T Ratio 10: 24.9%
[2]; [9]
  Cytotoxic Activity (%) E/T Ratio 1: 3.9%
  Cytotoxic Activity (%) E/T Ratio 3: 4.6%
  Cytotoxic Activity (%) E/T Ratio 10: 6.1%
[2]; [11]
  cytotoxic activity after continuous culture (in words): maintaining an antigen-specific cytotoxic activity
[3]; [12]
  Cytotoxic Activity (%) E/T Ratio 3: 63.5%
  Cytotoxic Activity (%) E/T Ratio 10: 81.4%
[3]; [13]
  Cytotoxic Activity (%) E/T Ratio 3: 26.2%
  Cytotoxic Activity (%) E/T Ratio 10: 26.8%
[3]; [14]
  Cytotoxic Activity (%) E/T Ratio 1: 13.5%
  Cytotoxic Activity (%) E/T Ratio 3: 24.1%
  Cytotoxic Activity (%) E/T Ratio 10: 50.4%
  Cytotoxic Activity (%) E/T Ratio 30: 76.0%
[3]; [15]
  Cytotoxic Activity (%) E/T Ratio 1: 0.5%
  Cytotoxic Activity (%) E/T Ratio 3: 5.2%
  Cytotoxic Activity (%) E/T Ratio 10: 6.5%
  Cytotoxic Activity (%) E/T Ratio 30: 14.4%

## swellable alginic acid
[1]; [4]
  Expansion Ratio: × 176
[1]; [5]
  Expansion Ratio: × 378
[2]; [24]
  Cytotoxic Activity (%) E/T Ratio 1: 39.8%
  Cytotoxic Activity (%) E/T Ratio 3: 75.3%
  Cytotoxic Activity (%) E/T Ratio 10: 86.9%
[2]; [25]
  Cytotoxic Activity (%) E/T Ratio 1: 12.5%
  Cytotoxic Activity (%) E/T Ratio 3: 26.5%
  Cytotoxic Activity (%) E/T Ratio 10: 22.2%
[2]; [8]
  Cytotoxic Activity (%) E/T Ratio 1: 12.6%
  Cytotoxic Activity (%) E/T Ratio 3: 18.7%
  Cytotoxic Activity (%) E/T Ratio 10: 35.6%
[2]; [9]
  Cytotoxic Activity (%) E/T Ratio 1: 3.3%
  Cytotoxic Activity (%) E/T Ratio 3: 1.3%
  Cytotoxic Activity (%) E/T Ratio 10: 8.8%
[2]; [11]
  cytotoxic activity after continuous culture (in words): maintaining an antigen-specific cytotoxic activity
[3]; [12]
  Cytotoxic Activity (%) E/T Ratio 3: 65.0%
  Cytotoxic Activity (%) E/T Ratio 10: 101.6%
[3]; [13]
  Cytotoxic Activity (%) E/T Ratio 3: 14.3%
  Cytotoxic Activity (%) E/T Ratio 10: 21.3%
[3]; [14]
  Cytotoxic Activity (%) E/T Ratio 1: 15.4%
  Cytotoxic Activity (%) E/T Ratio 3: 22.0%
  Cytotoxic Activity (%) E/T Ratio 10: 47.8%
  Cytotoxic Activity (%) E/T Ratio 30: 81.7%
[3]; [15]
  Cytotoxic Activity (%) E/T Ratio 1: 0.1%
  Cytotoxic Activity (%) E/T Ratio 3: 0%
  Cytotoxic Activity (%) E/T Ratio 10: 2.1%
  Cytotoxic Activity (%) E/T Ratio 30: 10.6%

## sodium salt of sulfated fucose
[1]; [4]
  Expansion Ratio: × 240
[1]; [5]
  Expansion Ratio: × 448
[2]; [6]
  Cytotoxic Activity (%) E/T Ratio 2.5: 17.6%
  Cytotoxic Activity (%) E/T Ratio 5: 36.6%
  Cytotoxic Activity (%) E/T Ratio 10: 55.3%
[2]; [7]
  Cytotoxic Activity (%) E/T Ratio 2.5: 0%
  Cytotoxic Activity (%) E/T Ratio 5: 0%
  Cytotoxic Activity (%) E/T Ratio 10: 0.2%
[2]; [8]
  Cytotoxic Activity (%) E/T Ratio 1: 8.9%
  Cytotoxic Activity (%) E/T Ratio 3: 12.6%
  Cytotoxic Activity (%) E/T Ratio 10: 26.4%
[2]; [9]
  Cytotoxic Activity (%) E/T Ratio 1: 0%
  Cytotoxic Activity (%) E/T Ratio 3: 0.4%
  Cytotoxic Activity (%) E/T Ratio 10: 3.3%
[2]; [10]
  cytotoxic activity after continuous culture (in words): effects for maintaining cytotoxic activity
[2]; [11]
  cytotoxic activity after continuous culture (in words): maintaining an antigen-specific cytotoxic activity
[3]; [12]
  Cytotoxic Activity (%) E/T Ratio 10: 70.2%
[3]; [13]
  Cytotoxic Activity (%) E/T Ratio 10: 23.3%
[3]; [14]
  Cytotoxic Activity (%) E/T Ratio 10: 32.5%
  Cytotoxic Activity (%) E/T Ratio 30: 64.9%
[3]; [15]
  Cytotoxic Activity (%) E/T Ratio 10: 0%
  Cytotoxic Activity (%) E/T Ratio 30: 1.3%

## sodium chondroitin sulfate A
[1]; [4]
  Expansion Ratio: × 280
[1]; [5]
  Expansion Ratio: × 383
[2]; [24]
  Cytotoxic Activity (%) E/T Ratio 10: 75.5%
[2]; [25]
  Cytotoxic Activity (%) E/T Ratio 10: 21.1%
[2]; [10]
  cytotoxic activity after continuous culture (in words): continuous culture of CTLs having an antigen-specific cytotoxic activity can be carried out
[3]; [12]
  Cytotoxic Activity (%) E/T Ratio 3: 56.7%
  Cytotoxic Activity (%) E/T Ratio 10: 89.0%
[3]; [13]
  Cytotoxic Activity (%) E/T Ratio 3: 0%
  Cytotoxic Activity (%) E/T Ratio 10: 5.3%
[3]; [14]
  Cytotoxic Activity (%) E/T Ratio 1: 8.0%
  Cytotoxic Activity (%) E/T Ratio 3: 18.7%
  Cytotoxic Activity (%) E/T Ratio 10: 36.6%
  Cytotoxic Activity (%) E/T Ratio 30: 67.6%
[3]; [15]
  Cytotoxic Activity (%) E/T Ratio 1: 6.3%
  Cytotoxic Activity (%) E/T Ratio 3: 5.6%
  Cytotoxic Activity (%) E/T Ratio 10: 7.5%
  Cytotoxic Activity (%) E/T Ratio 30: 18.8%
